From US20040209776A1, “Azole derivatives useful as insecticide” (priority 2001, published 2004)

How the values were obtained:
[1] = test system: Drosophila melanogaster; assay: Pest mortality test against fruit flies; assay type: in vivo; details: 120 h, 500 ppm by weight, mortality assessed usually between two and five days after treatment, read-out: Dm mortality (score)
Procedure: (§1) This Example illustrates the pesticidal/insecticidal properties of compounds of formula (I). The activities of individual compounds of formula (I) were determined using a variety of pests. The pests were treated with a liquid composition containing 500 parts per million (ppm) by weight of a compound of formula (I). Each composition was made by dissolving the compound in an acetone and ethanol (50:50 by volume) mixture and diluting the solution with water containing 0.05% by volume of a wetting agent, SYNPERONIC NP8, until the liquid composition contained the required concentration of the compound. SYNPERONIC is a registered trade mark.
(§2) The test procedure adopted with regard to each pest was essentially the same and comprised supporting a number of the pests on a medium, which was usually a substrate, a host plant or a foodstuff on which the pests feed, and treating either or both the medium and the pests with a composition. Pest mortality was assessed usually between two and five days after treatment.
(§3) Similar tests were conducted against, independently, two-spotted spider mites (Tetranychus urticae), fruit flies (Drosophila melanogaster), tobacco budworms (Heliothis virescens), diamond back moth (Plutella xylostella) and corn root worm (Diabrotica balteata).

[2] = test system: Heliothis virescens; assay: Pest mortality test against tobacco budworms; assay type: in vivo; details: 120 h, 500 ppm by weight, mortality assessed usually between two and five days after treatment, read-out: Hv mortality (score)
Procedure: as §1, §2, §3

[3] = test system: Myzus persicae; assay: Pest mortality test against peach potato aphids, infested Chinese cabbage leaves sprayed; assay type: in vivo; details: 72 h, 500 ppm by weight, sprayed on infested Chinese cabbage leaves, mortality assessed after three days, read-out: Mp mortality (score)
Procedure: as §1, §2
In each test against peach potato aphids (Myzus persicae), Chinese cabbage leaves were infested with aphids, the infested leaves were sprayed with a test composition and pest mortality was assessed after three days.

[4] = test system: Diabrotica balteata; assay: Pest mortality test against corn root worm; assay type: in vivo; details: 120 h, 500 ppm by weight, mortality assessed usually between two and five days after treatment, read-out: Db mortality (score)
Procedure: as §1, §2, §3

[5] = test system: Plutella xylostella; assay: Pest mortality test against diamond back moth; assay type: in vivo; details: 120 h, 500 ppm by weight, mortality assessed usually between two and five days after treatment, read-out: Px mortality (score)
Procedure: as §1, §2, §3

[6] = test system: Meloidogyne incognita; assay: In vitro test against root knot nematodes suspended in liquid composition; assay type: in vivo; details: 12.5 ppm by weight, no SYNPERONIC NP8, read-out: Mi mortality (score)
Procedure: as §1
Tests were also conducted against root knot nematodes (Meloidogyne incognita) using an in vitro test in which nematodes were suspended in a liquid composition which had been prepared as described above except that it contained a concentration of 12.5 ppm by weight of a compound of formula (I) and it contained no SYNPERONIC NP8.

| Structure (SMILES) | mortality at 500 ppm [1] | mortality at 500 ppm [2] | mortality at 500 ppm [3] | mortality at 500 ppm [4] | mortality at 500 ppm [5] | mortality at 12.5 ppm [6] | melting point |
| --- | --- | --- | --- | --- | --- | --- | --- |
| CCc1nsc(NC(=O)C(C)c2ccc3oc(-c4c(F)cccc4Cl)nc3c2)c1Cl (stereo not shown) [Compound 1, N-(4-chloro-3-ethylisothiazol-5-yl)-2-[2-(2-chloro-6-fluorophenyl)benzoxazol-5-yl]propionamide] | 80 to 100% | 80 to 100% | 80 to 100% | 80 to 100% | 80 to 100% | < 40% |  |
| Cc1nsc(NC(=O)C(C)c2ccc3oc(-c4cccc(Cl)c4Cl)nc3c2)c1Cl (stereo not shown) [Compound 11, N-(4-chloro-3-methylisothiazol-5-yl)-2-[2-(2,3-dichlorophenyl)benzoxazol-5-yl]propionamide] |  |  |  |  |  |  | 158 to 161 °C |
